{
  "source": "ChEMBL document CHEMBL6121000",
  "about": "“Corosolic acid and its derivatives targeting MCCC1 against insulin resistance and their hypoglycemic effect on type 2 diabetic mice” (Eur J Med Chem, 2025)",
  "key": {"HepG2 [1]": {"system": "HepG2", "assay": "Cytotoxicity against human HepG2 cells assessed as cell survival at 40 uM by MTT assay", "assay_type": "toxicity, cell-based", "conditions": "hepg2, 40 µM"}, "Mus musculus [2]": {"system": "Mus musculus", "assay": "Hypoglycemic activity in HFD-fed STZ-induced diabetic C57BL/6J mouse model assessed as increase in AKT phosphorylation in liver at 20 mg/kg, po administered everyday for 3 weeks by Western blot analysis", "assay_type": "functional, organism-based"}, "[3]": {"assay": "AUC (0 to t) in Sprague-Dawley rat at 20 mg/kg, po measured for 24 hrs by HPLC-ESI-MS analysis", "assay_type": "ADME, organism-based", "conditions": "in vivo"}, "[4]": {"assay": "Solubility of compound in PBS", "assay_type": "physicochemical"}, "[5]": {"assay": "Toxicity in Sprague-Dawley rat assessed as inflammatory cell infiltration in colon tissue at 20 mg/kg, po for 5 days", "assay_type": "organism-based", "conditions": "in vivo, 120 h, time 5 day"}, "[6]": {"assay": "Oral bioavailability in Sprague-Dawley rat at 20 mg/kg measured for 24 hrs by HPLC-ESI-MS analysis", "assay_type": "ADME, organism-based", "conditions": "in vivo"}, "Mus musculus [7]": {"system": "Mus musculus", "assay": "Hypoglycemic activity in HFD-fed STZ-induced diabetic C57BL/6J mouse model assessed as increase in hepatic glycogen synthesis at 20 mg/kg, po administered everyday for 3 weeks", "assay_type": "functional, organism-based"}, "[8]": {"assay": "Cmax in Sprague-Dawley rat at 20 mg/kg, po measured for 24 hrs by HPLC-ESI-MS analysis", "assay_type": "ADME, organism-based", "conditions": "in vivo"}, "[9]": {"assay": "Toxicity in Sprague-Dawley rat assessed as damage in colon at 20 mg/kg, po for 5 days", "assay_type": "organism-based", "conditions": "in vivo, 120 h, time 5 day"}, "HepG2 [10]": {"system": "HepG2", "assay": "Inhibition of insulin resistance in human HepG2 cells assessed as decrease in GlcN-induced glucose production at 20 uM preincubated for 1 hr followed by GlcN treatment for 18 hrs and subsequent insulin stimulation for 20 mins", "assay_type": "functional, cell-based", "conditions": "time 19.33 hrs"}, "HepG2 [11]": {"system": "HepG2", "assay": "Lipid lowering activity in human HepG2 cells assessed as reduction in FFA-induced triglyceride content at 20 uM preincubated for 1 hr followed by FFA treatment for 24 hrs", "assay_type": "functional, cell-based", "conditions": "time 25.0 hrs"}, "[12]": {"assay": "MRT (0 to t) in Sprague-Dawley rat at 20 mg/kg, po measured for 24 hrs by HPLC-ESI-MS analysis", "assay_type": "ADME, organism-based", "conditions": "in vivo"}, "Mus musculus [13]": {"system": "Mus musculus", "assay": "Inhibition of glucose production in HFD-fed STZ-induced diabetic C57BL/6J mouse model at 20 mg/kg, po administered everyday for 3 weeks", "assay_type": "functional, organism-based"}, "HepG2 [14]": {"system": "HepG2", "assay": "Lipid lowering activity in human HepG2 cells assessed as inhibition of FFA-induced triglyceride content at 20 uM preincubated for 1 hr followed by FFA treatment for 24 hrs relative to control", "assay_type": "functional"}, "[15]": {"assay": "Toxicity in Sprague-Dawley rat assessed as damage in spleen at 20 mg/kg, po for 5 days", "assay_type": "organism-based", "conditions": "in vivo, 120 h, time 5 day"}, "[16]": {"assay": "Toxicity in Sprague-Dawley rat assessed as reduction in number of crypts in colon tissue at 20 mg/kg, po for 5 days", "assay_type": "organism-based", "conditions": "in vivo, 120 h, time 5 day"}, "[17]": {"assay": "Cytotoxicity against human HepG2 cells assessed as cell viability at 80 uM incubated for 24 hrs by CCK8 assay relative to control", "assay_type": "toxicity, cell-based", "conditions": "HepG2 cells, read-out: Activity"}, "[18]": {"assay": "Toxicity in Sprague-Dawley rat assessed as damage in liver at 20 mg/kg, po for 5 days", "assay_type": "organism-based", "conditions": "in vivo, 120 h, time 5 day"}, "[19]": {"assay": "Toxicity in Sprague-Dawley rat assessed as damage in heart at 20 mg/kg, po for 5 days", "assay_type": "organism-based", "conditions": "in vivo, 120 h, time 5 day"}, "Mus musculus [20]": {"system": "Mus musculus", "assay": "Improvement in hepatic total cholesterol level of HFD-fed STZ-induced diabetic C57BL/6J mouse model at 20 mg/kg, po administered everyday for 3 weeks", "assay_type": "functional, organism-based"}, "[21]": {"assay": "Half life in Sprague-Dawley rat at 20 mg/kg, po measured for 24 hrs by HPLC-ESI-MS analysis", "assay_type": "ADME, organism-based", "conditions": "in vivo"}, "Mus musculus [22]": {"system": "Mus musculus", "assay": "Hypoglycemic activity in HFD-fed STZ-induced diabetic C57BL/6J mouse model assessed as improvement in triglyceride level in liver at 20 mg/kg, po administered everyday for 3 weeks", "assay_type": "functional, organism-based"}, "[23]": {"assay": "Volume of distribution in Sprague-Dawley rat at 20 mg/kg, po measured for 24 hrs by HPLC-ESI-MS analysis", "assay_type": "ADME, organism-based", "conditions": "in vivo"}, "[24]": {"assay": "Toxicity in Sprague-Dawley rat assessed as damage in lungs at 20 mg/kg, po for 5 days", "assay_type": "organism-based", "conditions": "in vivo, 120 h, time 5 day"}, "[25]": {"assay": "Cytotoxicity against human HepG2 cells assessed as cell survival at 10 uM by MTT assay relative to control", "assay_type": "toxicity, cell-based", "conditions": "read-out: Survival"}, "Mus musculus [26]": {"system": "Mus musculus", "assay": "Hypoglycemic activity in HFD-fed STZ-induced diabetic C57BL/6J mouse model assessed as reversal of diabetes-reduced MCCC1 level in liver at 20 mg/kg, po administered everyday for 3 weeks by Western blot analysis", "assay_type": "functional, organism-based"}, "[27]": {"assay": "Tmax in Sprague-Dawley rat at 20 mg/kg, po measured for 24 hrs by HPLC-ESI-MS analysis", "assay_type": "ADME, organism-based", "conditions": "in vivo"}, "[28]": {"assay": "Cytotoxicity against human HepG2 cells assessed as cell survival at 20 uM by MTT assay relative to control", "assay_type": "toxicity, cell-based", "conditions": "read-out: Survival"}, "Mus musculus [29]": {"system": "Mus musculus", "assay": "Hypoglycemic activity in HFD-fed STZ-induced diabetic C57BL/6J mouse model assessed as increase in GLUT4 level in liver at 20 mg/kg, po administered everyday for 3 weeks by Western blot analysis", "assay_type": "functional, organism-based"}, "Mus musculus [30]": {"system": "Mus musculus", "assay": "Hypoglycemic activity in HFD-fed STZ-induced diabetic C57BL/6J mouse model assessed as decrease in blood glucose level at 20 mg/kg, po administered everyday for 3 weeks", "assay_type": "functional, organism-based"}, "[31]": {"assay": "Clearance in Sprague-Dawley rat at 20 mg/kg, po measured for 24 hrs by HPLC-ESI-MS analysis", "assay_type": "ADME, organism-based", "conditions": "in vivo"}},
  "note": "The source made the active and inactive calls. No cut-off for these calls is given here.",
  "data": [
    {"compound": "C[C@H]1[C@H](C)CC[C@]2(C(=O)O)CC[C@]3(C)C(=CC[C@@H]4[C@@]5(C)C[C@@H](O)[C@H](O)C(C)(C)[C@@H]5CC[C@]43C)[C@H]12", "note": "[COROSOLIC ACID]", "values": [
      {"measurement": "Activity", "setting": "HepG2 [1]", "value": "Toxic"},
      {"measurement": "Activity", "setting": "Mus musculus [2]", "value": "Active"},
      {"measurement": "AUC(0-t) at 24 h", "setting": "[3]", "value": 9200, "unit": "ng·h/mL"},
      {"measurement": "solubility", "setting": "[4]", "value": 0.55, "unit": "µM"},
      {"measurement": "Activity", "setting": "[5]", "value": "Non-toxic"},
      {"measurement": "bioavailability", "setting": "[6]", "value": "< 1", "unit": "%"},
      {"measurement": "Activity", "setting": "Mus musculus [7]", "value": "Active"},
      {"measurement": "Cmax", "setting": "[8]", "value": 802, "unit": "ng/mL"},
      {"measurement": "Activity", "setting": "[9]", "value": "Non-toxic"},
      {"measurement": "inhibition", "setting": "HepG2 [10]", "value": "Active"},
      {"measurement": "Activity", "setting": "HepG2 [11]", "value": "Active"},
      {"measurement": "MRT last at 24 h", "setting": "[12]", "value": 10.2, "unit": "h"},
      {"measurement": "inhibition", "setting": "Mus musculus [13]", "value": "inactive"},
      {"measurement": "inhibition at 20 µM", "setting": "HepG2 [14]", "value": 61.6, "unit": "%"},
      {"measurement": "Activity", "setting": "[15]", "value": "Non-toxic"},
      {"measurement": "Activity", "setting": "[16]", "value": "Non-toxic"},
      {"measurement": "viability at 24 h, 80 µM", "setting": "[17]", "value": 13.5, "unit": "%"},
      {"measurement": "Activity", "setting": "[18]", "value": "Non-toxic"},
      {"measurement": "Activity", "setting": "[19]", "value": "Non-toxic"},
      {"measurement": "Activity", "setting": "Mus musculus [20]", "value": "inactive"},
      {"measurement": "half-life", "setting": "[21]", "value": 16.5, "unit": "h"},
      {"measurement": "Activity", "setting": "Mus musculus [22]", "value": "Active"},
      {"measurement": "Vd", "setting": "[23]", "value": 33.04048, "unit": "L/kg"},
      {"measurement": "Activity", "setting": "[24]", "value": "Non-toxic"},
      {"measurement": "viability at 10 µM", "setting": "[25]", "value": 96, "unit": "%"},
      {"measurement": "Activity", "setting": "Mus musculus [26]", "value": "Active"},
      {"measurement": "Tmax", "setting": "[27]", "value": 0.5, "unit": "h"},
      {"measurement": "viability at 20 µM", "setting": "[28]", "value": 101, "unit": "%"},
      {"measurement": "Activity", "setting": "Mus musculus [29]", "value": "Active; Slight Increase Observed"},
      {"measurement": "Activity", "setting": "Mus musculus [30]", "value": "Active; Slight Decrease Was Observed"},
      {"measurement": "CL/F", "setting": "[31]", "value": 23.1, "unit": "mL/min/kg"}
    ]}
  ]
}
